Patent publication US20200270576A1, “Ex Vivo Maintenance and Expansion of Stem Cells” (priority 2017, published 2020)

Legend:
bone marrow cells = test: TMI fluorescence (unfolded protein) in bone marrow cells from treated mice; type: in vivo; details: bone marrow cells isolated from treated mice
Description: FIG. 6A-D depict the validation of tetraphenylethene maleimide (TMI) as a probe to measure unfolded protein. FIG. 6A depicts that TMI is a cell permeable dye that fluoresces upon binding to cysteine thiols. The free thiol side chains of non-disulphide bonded hydrophobic cysteines are typically buried within the core of globular proteins, but can be exposed in unfolded proteins. FIG. 6B depicts that TMI fluorescence was higher in bone marrow cells after a 4 hour incubation at 42° C. as compared to 37° C. Since heat shock induces protein unfolding, this validated TMI as a means to quantify unfolded protein. FIG. 6C depicts that TMI fluorescence in bone marrow cells was increased after treatment with the proteasome inhibitor bortezomib. […] FIG. 6B-D validated that TMI can be used to quantify unfolded protein (protein quality) in hematopoietic cells.
As a complement to evaluating protein quality by assessing changes in ubiquitylated protein, a quantitative orthogonal assay to measure protein quality was developed. Tetraphenylethene maleimide (TMI) is a cell permeable dye that fluoresces upon binding to cysteine thiols. […] We adapted TMI to quantify unfolded proteins within single hematopoietic cells by flow cytometry. We validated TMI by assessing the effect of heat shock, which induces protein unfolding, on TMI fluorescence in bone marrow cells. […]

Hsf1 = Hsf1 expression and localization by immunofluorescence in cultured HSCs; type: cell-based, mouse; details: 10 days culture; 17-AAG 5 nM, HSF1A 8 uM final concentration
Description: FIG. 14 depicts representative immunofluorescence staining of HSCs cultured for 10 days in the presence or absence of 17-AAG or HSF1A. Addition of 17-AAG or HSF1A to culture medium increased Hsf1 accumulation in the nucleus of cultured HSCs. Hsf1-deficient HSCs and cells stained without primary antibody (Neg Con) are shown as controls.
Since Hsf1 promoted HSC maintenance and protein homeostasis in vitro (FIG. 13), we investigated whether increasing Hsf1 expression or activity would further enhance HSC maintenance. […] Hsf1 can become active as a transcription factor when it translocates to the nucleus. We thus tested whether inhibitors of HSP90 or TRiC would promote Hsf1 accumulation in the nucleus of cultured HSCs by culturing HSCs for 10 days in the presence or absence of 17-AAG (HSP90 inhibitor; 5 nM final concentration) or HSF1A (TRiC inhibitor; 8 uM final concentration), and assessed Hsf1 expression and localization by immunofluorescence.

[1] = system: Hsf1-deficient and control HSCs; test: Competitive transplantation of cultured wild-type and Hsf1-deficient HSCs; type: cell-based, mice; details: 12 weeks after transplantation
Description: FIG. 17 depicts that Hsf1 is required for 17-AAG and HSF1A to enhance HSC maintenance and expansion in vitro. Donor cell engraftment 12 weeks after transplantation of 10 wild-type and Hsf1-deficient HSCs cultured for 10 days in the presence or absence of 17-AAG, HSF1A or DMSO. Cells were transplanted with 2×10^5 freshly isolated congenic bone marrow cells (n=7-9; *P<0.05, **P<0.01).
We tested whether the positive effects of 17-AAG and HSF1A on HSC maintenance/expansion in vitro were mediated by Hsf1. Purified Hsf1-deficient and control HSCs were sorted from adult bone marrow (CD45.2^+) into 96-well plates (10/well) containing HSC medium supplemented with 17-AAG, HSF1A or vehicle (DMSO). HSCs were cultured for 10 days and competitively transplanted with 2×10^5 freshly isolated congenic bone marrow cells (CD45.1^+) into irradiated mice (CD45.1^+). Recipient mice were bled monthly to assess levels of donor-derived CD45.2^+ hematopoietic cells. […] However, the positive effect of 17-AAG and HSF1A was lost with Hsf1-deficient HSCs (FIG. 17).

HSCs = test: Competitive transplantation of HSCs cultured 10 days, with serial transplantation; type: cell-based, murine
Description: FIG. 16A-B depict that HSC functionality is maintained and expanded in vitro by interventions that can induce/activate Hsf1. FIG. 16A depicts donor cell engraftment 16 weeks after transplantation of 10 HSCs cultured for 10 days in the presence or absence of an HSP90 inhibitor (17-AAG) or TRiC inhibitor (HSF1A) or from 10 freshly isolated HSCs. Cells were transplanted with 2×10^5 freshly isolated congenic bone marrow cells (n=3 independent experiments with 3-5 recipients/condition/experiment). […] Addition of either 17-AAG or HSF1A increased the reconstituting potential of cultured HSCs as compared to both control cultured and freshly isolated HSCs.
To test if HSCs depend on Hsf1 for their maintenance in vitro, we conditionally deleted Hsf1 from HSCs, cultured them for 10 days and assessed their long-term multilineage reconstituting activity in competitive transplantation assays. The assay for testing HSC function is to assess their capacity to give long-term (16+ week) multilineage (B cell, T cell and myeloid cell) reconstitution of the blood system of an irradiated transplant recipient. A competitive transplantation assay provides a quantitative readout of HSC regenerative activity.
Modest declines in proteostasis impair HSC maintenance in vivo. […] This raises the possibility that increasing Hsf1 activity could promote HSC maintenance in vitro by enhancing proteostasis capacity. To test if HSP90 inhibitors or TRiC inhibitors promote HSC maintenance in vitro, purified HSCs were sorted from young adult murine bone marrow (CD45.1^+) into 96-well plates (10/well) containing our HSC medium supplemented with 17-AAG or HSF1A. HSCs were cultured for 10 days and competitively transplanted with 2×10^5 freshly isolated congenic bone marrow cells (CD45.2^+) into irradiated mice (CD45.2^+). Recipient mice were bled monthly (for 4 months) to assess levels of donor-derived CD45.1^+ hematopoietic cells. Self-renewal capacity of HSCs was assessed by serially transplanting hematopoietic cells from the primary recipients into secondary irradiated recipients (3×10^6 cells/recipient). […] Similar results are expected for other HSP90 or TRiC inhibitors.
To test if HSP90 inhibitors or TRiC inhibitors enable HSC expansion in vitro, purified HSCs were sorted from young adult bone marrow (CD45.1^+) into 96-well plates (10/well) containing HSC medium supplemented with 17-AAG or HSF1A. HSCs were cultured for 10 days and competitively transplanted with 2×10^5 freshly isolated congenic bone marrow cells (CD45.2^+) into irradiated mice (CD45.2^+). At the same time, 10 freshly isolated HSCs were transplanted with 2×10^5 freshly isolated congenic bone marrow cells into irradiated mice. Recipient mice were bled monthly (for 4 months) to assess levels of donor-derived CD45.1^+ hematopoietic cells. Self-renewal capacity of HSCs was assessed by serially transplanting hematopoietic cells (3×10^6 cells/recipient) into secondary irradiated recipients. […] Similar results are expected for other HSP90 or TRiC inhibitors.

CD48-LSK HSCs/MPPs = test: Western blot of ubiquitylated protein in cultured HSCs; type: cell-based, mouse; details: added to culture medium; HSCs 4 and 18 hours in vitro
Description: FIG. 10A-C depicts increased protein synthesis and reduced protein quality within HSCs in vitro. FIG. 10A depicts relative protein synthesis rates of HSCs normalized to bone marrow cells in vivo (n=6) and after 4 hours in vitro (n=5). Statistical significance was assessed with a two-tailed Student's t-test (***P<0.001). FIGS. 10B and 10C depict western blots that examined ubiquitylated protein levels in freshly isolated or cultured CD48^−LSK HSCs/MPPs. […] The accumulation of ubiquitylated protein was prevented by addition of the translation inhibitor cycloheximide (CHX) to culture medium.
The accumulation of ubiquitylated protein could be blocked by adding the translation inhibitor cycloheximide to the culture medium (FIG. 10B, 10C).

[2] = system: primary bone marrow cells; test: OPP incorporation (protein synthesis) by flow cytometry; type: cell-based, mouse; details: pre-treatment with translation inhibitor; primary bone marrow cells in culture
Description: FIG. 1A-D depict quantification of protein synthesis in hematopoietic cells. FIG. 1A depicts how 0-propargyl-puromycin (OPP) was used to quantify protein synthesis within cells. OPP is a puromycin analog with a terminal alkyne group that mimics an aminoacyl-tRNA and integrates into nascent polypeptides. Azide-alkyne cycloaddition can covalently link a fluorescently tagged azide molecule to OPP that has been incorporated into new peptides. FIG. 1B depicts that when OPP was added to cell culture medium, its incorporation in primary bone marrow cells was detected and quantified by flow cytometry. […] FIG. 1C depicts OPP incorporation in CD150^+CD48^−Lineage^−Sca1^+ckit^+ (CD150^+CD48^−LSK) HSCs and unfractionated bone marrow cells one hour after administration in vivo. FIG. 1D depicts OPP incorporation (protein synthesis rates) in HSCs, multipotent progenitors (MPP), common myeloid progenitors (CMP), granulocyte macrophage progenitors (GMP), granulocytes (GR) megakaryocyte erythroid progenitors (MEP), CD71^+Ter119^+ erythroid progenitors (E), pro-B, pre-B, IgM^+ B cells (IgM), CD3^+ T cells (T), and unfractionated bone marrow cells (BM). […] Statistical significance relative to HSCs was assessed using a repeated-measures one way ANOVA followed by Dunnett's test (n=9; **P<0.01, ***P<0.001).

CC(C)C[C@H](NC(=O)[C@H](Cc1ccccc1)NC(=O)c1cnccn1)B(O)O [Bortezomib]
increase in TMI fluorescence as compared to cells from vehicle treated controls (bone marrow cells): ~30%

CCc1ccc(S(=O)(=O)Nc2cc(-c3cccs3)nn2-c2ccccc2)cc1 [HSF1A]
Hsf1 abundance in the nucleus of cultured HSCs (Hsf1): increase Hsf1 abundance in the nucleus | donor cell reconstitution vs controls (DMSO), control HSCs ([1]; 10 HSCs cultured 10 days): higher levels of donor cell reconstitution as compared to controls | positive effect on donor cell reconstitution with Hsf1-deficient HSCs ([1]; Hsf1-deficient HSCs cultured 10 days): lost | donor cell reconstitution vs recipients of freshly isolated HSCs (HSCs; 10 HSCs cultured 10 days vs 10 freshly isolated HSCs): higher levels of donor cell reconstitution as compared to recipients of freshly isolated HSCs | donor cell reconstitution in primary recipients vs HSCs cultured without agent (HSCs; 10 HSCs cultured 10 days, with 2x10^5 congenic bone marrow cells, 16 weeks): significantly higher levels of donor cell reconstitution as compared to controls | fraction of recipients with long-term multilineage reconstitution vs HSCs cultured without agent (HSCs; primary and secondary transplants, 16 week, >0.5% B-, T-, myeloid cells): greater fraction | fraction of recipients with long-term multilineage reconstitution vs freshly isolated HSCs (HSCs; secondary transplants): significantly greater fraction | donor cell reconstitution in secondary recipients vs HSCs cultured without agent (HSCs; serial transplant, 3x10^6 cells/recipient): even more pronounced

C[C@@H]1C[C@@H]([C@H](O)CC2CC(=O)NC(=O)C2)C(=O)[C@@H](C)C1 [cycloheximide]
accumulation of ubiquitylated protein (CD48-LSK HSCs/MPPs): blocked | incorporation of OPP (new protein synthesis) [2]: inhibited
